{"source": "patent US20220314021A1", "about": "“METHOD FOR D[…] […] PHOTODYNAMIC THERAPY AND PHOTODYNAMIC THERAPY APPARATUS” (OTSUKA ELECTRONICS CO., LTD., priority 2019, published 2022)", "test_system": "Jurkat cells derived from human T-cell leukemia", "assay": "cell killing assay by PDT in Jurkat cells (630 nm, Cell Counting Kit-8)", "type": "cell-based", "conditions": "5-ALA loading 0-1 mmol/L, light irradiation 30 J/cm^2, 630 nm", "protocol": "For Jurkat cells derived from human T-cell leukemia which is a disease classification different from that of the human adult T-cell leukemia/lymphoma clinically, amounts of protoporphyrin IX accumulated in the cells by 5-ALA loading (0, 0.0625, 0.125, 0.25, 0.5 and 1 mmol/L) were measured using the fluorescence detection high-performance liquid chromatography method, and then light irradiation (30 J/cm^2) with a central wavelength of 630 nm was further performed as the cell killing assay by PDT, and then cell viabilities (%) using the cell counting kit (Cell Counting Kit-8) were calculated."}
{"smiles": "NCC(=O)CCC(=O)O", "note": "[5-ALA, 5-aminolevulinic acid]", "values": [{"measurement": "cell viabilities versus the regression curve of FIG. 3", "value": "located on the regression curve described in FIG. 3"}]}
